The test system of data set [1] is Mus musculus. The data set is described as follows: Analgesic activity in albino Mus musculus (mouse) assessed as inhibition of acetic acid-induced abdominal writhings at 10 mg/kg, po administered 1 hr before acetic acid injection measured for 5 to 8 min. It is filed as functional. As to conditions: Abdomen.
Data set [2] has as its system Mus musculus. The data set can be described thus: Analgesic activity in albino Mus musculus (mouse) assessed as protection against thermal stimulus-induced paw licking and jumping behaviour at 10 mg/kg, po measured after 1 hr by hot plate assay. The data set is classed as functional.
For data set [3], the system named is Mus musculus. The data set is described as follows: Analgesic activity in albino Mus musculus (mouse) assessed as proportion of animals without pain behaviour symptoms at 10 mg/kg, po administered 1 hr before acetic acid injection measured for 5 to 8 min. The data set is classed as functional.
Data set [4] concerns Mus musculus. The data set is described as follows: Analgesic activity in po dosed albino Mus musculus (mouse) assessed as protection against thermal stimulus-induced paw licking and jumping behaviour measured after 1 hr by hot plate assay. The data set is classed as functional.
Data set [5] concerns Mus musculus. The data set is described as follows: Analgesic activity in po dosed albino Mus musculus (mouse) assessed as inhibition of acetic acid-induced abdominal writhings administered 1 hr before acetic acid injection measured for 5 to 8 min. As to conditions: Abdomen. The data set is classed as functional. A general note: An intraperitoneal irritant provokes the stretching counted in writhing tests.

Data set [6] has as its system Mus musculus. The data set can be described thus: Selectivity index, ratio of LD50 for albino Mus musculus (mouse) to ED50 for albino Mus musculus (mouse) by hot-plate test.
The test system of data set [7] is Mus musculus. The data set is described as follows: Selectivity index, ratio of LD50 for albino Mus musculus (mouse) to ED50 for albino Mus musculus (mouse) by acetic acid-induced writhing test.
Data set [8] in a line: Acute toxicity in albino Mus musculus (mouse) assessed as mortality administered intragastrically by kreber method. It is filed as organism-based. As to conditions: in vivo, po.

This is an account of results in ChEMBL document CHEMBL3045316, “Synthesis and analgesic activity of new heterocyclic compounds derived from monoterpenoids” (Med Chem Res, 2013).

SMILES strings stand for the structures.

As to `COc1cc([C@@H]2CC(C)(C)[C@@H]3CC=C(C)[C@@H](O)[C@@H]3O2)cc(OC)c1OC`, the inhibition in vivo – broadly, the share of the control response that was lost under treatment – at 10 mg/kg in the data set on Mus musculus [1] was found to be 13%. For the same compound, the Activity in the data set with Mus musculus [2] was 16%.

Take `COc1cc([C@H]2O[C@@]3(C)C[C@H](c4cc(OC)c(OC)c(OC)c4)O[C@H]4C(=O)[C@H](C)[C@H]2C[C@H]43)cc(OC)c1OC`: the Activity in the data set on Mus musculus [3] was found to be 25%; in the data set on Mus musculus [2], 19%. Besides, in the data set with Mus musculus [1], the inhibition in vivo at 10 mg/kg is 50%.

On to `COc1ccc([C@H]2O[C@@]3(C)C[C@H](c4ccc(OC)c(OC)c4OC)O[C@H]4C(=O)[C@H](C)[C@H]2C[C@H]43)c(OC)c1OC`, for which the inhibition in vivo at 10 mg/kg in the data set on Mus musculus [1] was 23%. The Activity with Mus musculus [2] was 9%.

As to `COc1cc([C@@H]2C[C@@]3(C)O[C@H]4C(C)=CC[C@@H]3[C@H]4O2)cc(OC)c1OC`, the results for the ED50 with Mus musculus [4] and with Mus musculus [5] were 25 mg/kg and 22 mg/kg, respectively. Besides, the values for the Activity in the data set on Mus musculus [3] and in the data set with Mus musculus [2] were 25% and 72%, respectively. In addition, the inhibition in vivo at 10 mg/kg with Mus musculus [1] was determined as 65%. In addition, the “Ratio LD50/ED50” value in the data set on Mus musculus [6] and with Mus musculus [7] was 60 each time. Moreover, the LD50 (usually the dose expected to kill half of the subjects tested) in data set [8] amounted to 500 mg/kg.

For `CC(=O)Oc1ccccc1C(=O)O` [ASPIRIN], the “Ratio LD50/ED50” value in the data set with Mus musculus [7] is recorded as 10.3.

In the case of `O=C([O-])Cc1ccccc1Nc1c(Cl)cccc1Cl.[Na+]` [DICLOFENAC SODIUM], the Activity with Mus musculus [3] is 87.5%; in the data set with Mus musculus [2], 64%. Also, the inhibition in vivo at 10 mg/kg in the data set on Mus musculus [1] was determined as 90%.
